Test results taken from PubChem BioAssay (NCI).
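GI50 = concentration required for 50% inhibition of growth. TGI is the concentration that stops growth completely.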

Experiments:
Assay in all cases: NCI tumour cell line growth inhibition, 384-well format
786-0 renal = tested on: 786-0 renal
A498 renal = tested on: A498 renal
A549 NSCLC = tested on: A549 NSCLC
ACHN renal = tested on: ACHN renal
BT-549 breast = tested on: BT-549 breast
CAKI-1 renal = tested on: CAKI-1 renal
CCRF-CEM leukemia = tested on: CCRF-CEM leukemia
COLO 205 colon = tested on: COLO 205 colon
DU-145 prostate = tested on: DU-145 prostate
HCC-2998 colon = tested on: HCC-2998 colon
HCT-116 colon = tested on: HCT-116 colon
HCT-15 colon = tested on: HCT-15 colon
HL-60(TB) leukemia = tested on: HL-60(TB) leukemia
HOP-62 NSCLC = tested on: HOP-62 NSCLC
HOP-92 NSCLC = tested on: HOP-92 NSCLC
HT29 colon = tested on: HT29 colon
IGROV1 ovarian = tested on: IGROV1 ovarian
KM12 colon = tested on: KM12 colon
LOX IMVI melanoma = tested on: LOX IMVI melanoma
M14 melanoma = tested on: M14 melanoma
MALME-3M melanoma = tested on: MALME-3M melanoma
MCF7 breast = tested on: MCF7 breast
MDA-MB-231 breast = tested on: MDA-MB-231 breast
MDA-MB-435 melanoma = tested on: MDA-MB-435 melanoma
MDA-MB-468 breast = tested on: MDA-MB-468 breast
MOLT-4 leukemia = tested on: MOLT-4 leukemia
NCI-H226 lung = tested on: NCI-H226 lung
NCI-H23 lung = tested on: NCI-H23 lung
NCI-H322M lung = tested on: NCI-H322M lung
NCI-H460 NSCLC = tested on: NCI-H460 NSCLC
NCI-H522 lung = tested on: NCI-H522 lung
NCI/ADR-RES ovarian = tested on: NCI/ADR-RES ovarian
OVCAR-3 ovarian = tested on: OVCAR-3 ovarian
OVCAR-4 ovarian = tested on: OVCAR-4 ovarian
OVCAR-5 ovarian = tested on: OVCAR-5 ovarian
OVCAR-8 ovarian = tested on: OVCAR-8 ovarian
PC-3 prostate = tested on: PC-3 prostate
RPMI-8226 leukemia = tested on: RPMI-8226 leukemia
RXF 393 renal = tested on: RXF 393 renal
SF-268 CNS = tested on: SF-268 CNS
SF-295 CNS = tested on: SF-295 CNS
SF-539 CNS = tested on: SF-539 CNS
SK-MEL-2 melanoma = tested on: SK-MEL-2 melanoma
SK-MEL-28 melanoma = tested on: SK-MEL-28 melanoma
SK-MEL-5 melanoma = tested on: SK-MEL-5 melanoma
SK-OV-3 ovarian = tested on: SK-OV-3 ovarian
SN12C renal = tested on: SN12C renal
SNB-19 CNS = tested on: SNB-19 CNS
SR leukemia = tested on: SR leukemia
SW-620 colon = tested on: SW-620 colon
T-47D breast = tested on: T-47D breast
TK-10 renal = tested on: TK-10 renal
U251 glioblastoma = tested on: U251 glioblastoma
UACC-257 melanoma = tested on: UACC-257 melanoma
UACC-62 melanoma = tested on: UACC-62 melanoma
UO-31 renal = tested on: UO-31 renal

## Cc1ccc(NC(=O)c2ccc(CN3CC[C@H](N(C)C)C3)c(C(F)(F)F)c2)cc1Nc1nccc(-c2cncnc2)n1
786-0 renal
  GI50: 1890 nM
  TGI: 3470 nM
A498 renal
  GI50: 2690 nM
  TGI: 6220 nM
A549 NSCLC
  GI50: 3010 nM
  TGI: 10900 nM
ACHN renal
  GI50: 1840 nM
  TGI: 4100 nM
BT-549 breast
  GI50: 3960 nM
  TGI: 10000 nM
CAKI-1 renal
  GI50: 2860 nM
  TGI: 6720 nM
CCRF-CEM leukemia
  GI50: 1990 nM
  TGI: 3440 nM
COLO 205 colon
  GI50: 396 nM
  TGI: 1780 nM
DU-145 prostate
  GI50: 6800 nM
  TGI: 18900 nM
HCC-2998 colon
  GI50: 1160 nM
  TGI: 2640 nM
HCT-116 colon
  GI50: 1380 nM
  TGI: 2740 nM
HCT-15 colon
  GI50: 2490 nM
  TGI: 5660 nM
HL-60(TB) leukemia
  GI50: 433 nM
  TGI: 1310 nM
HOP-62 NSCLC
  GI50: 2190 nM
  TGI: 6540 nM
HOP-92 NSCLC
  GI50: 1640 nM
  TGI: 3140 nM
HT29 colon
  GI50: 947 nM
  TGI: 2190 nM
IGROV1 ovarian
  GI50: 3680 nM
  TGI: 13900 nM
KM12 colon
  GI50: 2510 nM
  TGI: 5920 nM
LOX IMVI melanoma
  GI50: 1030 nM
  TGI: 2220 nM
M14 melanoma
  GI50: 233 nM
  TGI: 811 nM
MALME-3M melanoma
  GI50: 147 nM
  TGI: 436 nM
MCF7 breast
  GI50: 2310 nM
  TGI: 7760 nM
MDA-MB-231 breast
  GI50: 1750 nM
  TGI: 3240 nM
MDA-MB-435 melanoma
  GI50: 1050 nM
  TGI: 3510 nM
MDA-MB-468 breast
  GI50: 2180 nM
  TGI: 3660 nM
MOLT-4 leukemia
  GI50: 1780 nM
  TGI: 3170 nM
NCI-H226 lung
  GI50: 2090 nM
  TGI: 5070 nM
NCI-H23 lung
  GI50: 2060 nM
  TGI: 7780 nM
NCI-H322M lung
  GI50: 3920 nM
  TGI: 12800 nM
NCI-H460 NSCLC
  GI50: 1670 nM
  TGI: 3350 nM
NCI-H522 lung
  GI50: 1520 nM
  TGI: 3400 nM
NCI/ADR-RES ovarian
  GI50: 3880 nM
  TGI: 13300 nM
OVCAR-3 ovarian
  GI50: 2400 nM
  TGI: 5420 nM
OVCAR-4 ovarian
  GI50: 2430 nM
  TGI: 6600 nM
OVCAR-5 ovarian
  GI50: 1860 nM
  TGI: 4570 nM
OVCAR-8 ovarian
  GI50: 2190 nM
  TGI: 5300 nM
PC-3 prostate
  GI50: 3380 nM
  TGI: 8450 nM
RPMI-8226 leukemia
  GI50: 1340 nM
  TGI: 2620 nM
RXF 393 renal
  GI50: 1520 nM
  TGI: 3220 nM
SF-268 CNS
  GI50: 2720 nM
  TGI: 6990 nM
SF-295 CNS
  GI50: 1900 nM
  TGI: 3420 nM
SF-539 CNS
  GI50: 1430 nM
  TGI: 2750 nM
SK-MEL-2 melanoma
  GI50: 1200 nM
  TGI: 2460 nM
SK-MEL-28 melanoma
  GI50: 304 nM
  TGI: 1130 nM
SK-MEL-5 melanoma
  GI50: 674 nM
  TGI: 1990 nM
SK-OV-3 ovarian
  GI50: 2090 nM
  TGI: 4530 nM
SN12C renal
  GI50: 2580 nM
  TGI: 6550 nM
SNB-19 CNS
  GI50: 4560 nM
  TGI: 13600 nM
SR leukemia
  GI50: 1820 nM
  TGI: 3230 nM
SW-620 colon
  GI50: 3080 nM
  TGI: 10600 nM
T-47D breast
  GI50: 1530 nM
  TGI: 3060 nM
TK-10 renal
  GI50: 2200 nM
  TGI: 4710 nM
U251 glioblastoma
  GI50: 1950 nM
  TGI: 3760 nM
UACC-257 melanoma
  GI50: 430 nM
  TGI: 1760 nM
UACC-62 melanoma
  GI50: 318 nM
  TGI: 1290 nM
UO-31 renal
  GI50: 2000 nM
  TGI: 4130 nM
